# Data published in US7063842B2, “Compounds and methods for inhibiting the interaction between α-catenin and β-catenin” (McGill University, priority 1997, dated 2006).
# Positions of bridges follow the written chain, without caps; N, C: chain ends.
# Legend:
# [1] = tested on: α-catenin/β-catenin interactions; experiment: Immunoprecipitation from adult mouse brain extracts, Western blot probed with anti-α-catenin / anti-β-catenin antibodies; type: binding; conditions: adult mouse brain homogenate incubated 3 hours at 4° C. with peptide at 1 mg/ml
# Protocol: As noted above, modulating agents are capable of disrupting an interaction between α-catenin and β-catenin. This ability may generally be evaluated using any suitable assay known to those of ordinary skill in the art. For example, an immunoprecipitation as described herein may be employed. Within such an assay, disruption of the interaction is measured by assessing the ability of an antibody directed against β-catenin to immunoprecipitate α-catenin in the presence and absence of the modulating agent. For example, tissue such as brain may be homogenized in the presence and absence of modulating agent. The ability of an antibody directed against β-catenin to immunoprecipitate α-catenin from the homogenate is then assessed by probing a Western blot of proteins immunoprecipitated from the tissue homogenate by anti-β-catenin antibody with an anti-α-catenin antibody. […]
# These peptides, as well as two control peptides (H-CKHGWNC-OH, SEQ ID NO:6, and H-CKHGWNC-OH, SEQ ID NO:51) were analyzed for their ability to disrupt α-catenin/β-catenin interactions, as judged by standard immunoprecipitation methods. […] Finally, the membrane was washed 3 times with TTBS, and the immunoreactive proteins were detected using an enhanced chemiluminescence kit (ECL; Amersham Life Sciences Inc., Oakville, Ontario) and autoradiographic film (Fuji, Minami-Ashigara, Japan). […]
# [2] = tested on: Normal human breast A1N4 cells; experiment: Disruption of cell adhesion: microinjection of peptide/DAPI mixture into cells, morphology noted at hourly intervals; type: cell-based; conditions: 0.2 pL peptide/DAPI mixture injected, final intracellular concentration of peptide 0.5 mg/ml, after 4 hours
# Protocol: Three peptides (N-Ac-CKHAVVNC-NH2, N-Ac-CKHGWNC-NH2, and H-KHAVVN-OH; SEQ ID NOS: 5, 51 and 8 respectively) were tested for their ability to disrupt cell adhesion. Normal human breast A1N4 cells were grown on gridded glass coverslips to approximately 30% confluence. Peptides were dissolved in distilled water at a concentration of […]. Each of the three peptide solutions was mixed 1:1 with a solution containing the fluorescent marker DAPI (Molecular Probes Inc., Eugene, Oreg.) dissolved in water at a concentration of 40 μg/ml. All of the mixtures were centrifuged at 10,000×g for 5 minutes immediately before use in the experiments. An aliquot ([…]) of each peptide/DAPI mixture was taken up in an Eppendorff microinjection pipette. Microinjection was performed using an Eppendorf microinjector and micromanipulator coupled to an IM35 inverted Zeiss microscope with phase contrast and Hoffman optics. Cells to be injected were located and their position on the grid noted. For microinjection, the pipette was brought close to the cell layer and the micromanipulator programmed to return to the same plane. Cells were injected with 0.2 pL of peptide/DAPI mixture. This corresponds to approximately 1/100 of the cell volume and results in a final intracellular concentration of peptide of 0.5 mg/ml. […] After 4 hours, a difference in the morphology of the cells injected with the various peptides was observed.
Substance,"ability to disrupt α-catenin/β-catenin interactions, as judged by immunoprecipitation [1]",morphology of the injected cells [2]
H-Cys-Lys-His-Ala-Val-Val-Asn-Cys-OH (H-CKHAVVNC-OH; cysteine pairing not given here) [H-CKHAVVNC-OH (SEQ ID NO:5)],capable of disrupting the interaction between α-catenin and β-catenin,–
H-KHAVVN-OH [H-KHAVVN-OH (SEQ ID NO:8)],–,"had become rounded, and they were detached from their neighbors"
N-Ac-CKHAVVNC-NH2 (disulfide 1-8 (inferred)) [N-Ac-CKHAVVNC-NH2 (SEQ ID NO:5)],–,indistinguishable from surrounding uninjected cells
H-CKHAVVNC-OH (cysteine pairing not given here) [H-CKHAVVNC-OH (SEQ ID NO:4)],capable of disrupting the interaction between α-catenin and β-catenin,–
"Ac-CKHGWNC-NH2 (cysteine pairing not given here) [N-Ac-CKHGWNC-NH2 (SEQ ID NO:51), reference compound]",–,indistinguishable from surrounding uninjected cells
